Data as given in publication PMC10113987, “A tool for nuclear imaging of the SARS-CoV-2 entry receptor: molecular model and preclinical development of ACE2-selective radiopeptides” (EJNMMI Research, 2023).
Positions of bridges follow the written chain, without caps; N, C: chain ends. Residues, ends and D or L forms follow the SMILES beside them. *: point of attachment. DOTA = O=C(O)CN1CCN(CC(=O)O)CCN(CC(=O)*)CCN(CC(=O)O)CC1; NODAGA = O=C(O)CN1CCN(CC(=O)O)CCN(C(CCC(=O)*)C(=O)O)CC1; Ahx = NCCCCCC(=O)O

Columns and labels:
[1] = test system: human blood plasma proteins; test: Blood plasma protein binding, human plasma (ultrafiltration); format: in vitro ADME; settings: 30 min, 37 °C
Experimental: (§1) The radiopeptides (0.3 MBq; 15 pmol) were incubated in human or murine blood plasma (150 μL) for 30 min at 37 °C followed by cooling on ice, addition of ice-cold PBS (150 μL) and transfer of the samples to amicon filter devices (Amicon Ultra, 0.5 mL, Merck Millipore; cutoff 10 kDa). The filter ensured the retention of the radiopeptides bound to mouse plasma proteins or human plasma proteins during filtration (14,000 rcf, 30 min at 4 °C). Afterward, the filter inserts were inverted and centrifuged again (200 rcf, 3 min) to recover the protein-bound fraction of the radiopeptides. The activities of the free radiopeptides in the filtrate, as well as in the filter insert and the plasma protein-bound radiopeptides (Abound), were counted for activity separately in a γ-counter. The total activity (Atotal) was determined as the sum of the activities in the filtrate, filter insert, and protein-bound fractions. The percentage of radiopeptide bound to mouse serum albumin (MSA) and human serum albumin (HSA) was calculated as Abound/Atotal*100. The results were presented as average ± SD of three independent experiments (Additional file 1).
(§2) Methods: The detailed methods are reported in the main article. Control experiments were performed by incubation of the respective radiopeptides in phosphate-buffered saline (PBS) instead of blood plasma, followed by ultracentrifugation using Amicon filters.

[2] = as above; format: in vitro ADME; settings: human, plasma, 30 min, 37 °C, read-out: Fraction bound to blood plasma proteins
Experimental: as §1, §2

[3] = biological target: T1, ACE (Homo sapiens, UniProt P12821); test: ACE-binding affinity (saturation binding on HEK-ACE cells); settings: on ice, 1 h
T1 construct: host or cells: HEK-293
T1 sequence (P12821 30-1306): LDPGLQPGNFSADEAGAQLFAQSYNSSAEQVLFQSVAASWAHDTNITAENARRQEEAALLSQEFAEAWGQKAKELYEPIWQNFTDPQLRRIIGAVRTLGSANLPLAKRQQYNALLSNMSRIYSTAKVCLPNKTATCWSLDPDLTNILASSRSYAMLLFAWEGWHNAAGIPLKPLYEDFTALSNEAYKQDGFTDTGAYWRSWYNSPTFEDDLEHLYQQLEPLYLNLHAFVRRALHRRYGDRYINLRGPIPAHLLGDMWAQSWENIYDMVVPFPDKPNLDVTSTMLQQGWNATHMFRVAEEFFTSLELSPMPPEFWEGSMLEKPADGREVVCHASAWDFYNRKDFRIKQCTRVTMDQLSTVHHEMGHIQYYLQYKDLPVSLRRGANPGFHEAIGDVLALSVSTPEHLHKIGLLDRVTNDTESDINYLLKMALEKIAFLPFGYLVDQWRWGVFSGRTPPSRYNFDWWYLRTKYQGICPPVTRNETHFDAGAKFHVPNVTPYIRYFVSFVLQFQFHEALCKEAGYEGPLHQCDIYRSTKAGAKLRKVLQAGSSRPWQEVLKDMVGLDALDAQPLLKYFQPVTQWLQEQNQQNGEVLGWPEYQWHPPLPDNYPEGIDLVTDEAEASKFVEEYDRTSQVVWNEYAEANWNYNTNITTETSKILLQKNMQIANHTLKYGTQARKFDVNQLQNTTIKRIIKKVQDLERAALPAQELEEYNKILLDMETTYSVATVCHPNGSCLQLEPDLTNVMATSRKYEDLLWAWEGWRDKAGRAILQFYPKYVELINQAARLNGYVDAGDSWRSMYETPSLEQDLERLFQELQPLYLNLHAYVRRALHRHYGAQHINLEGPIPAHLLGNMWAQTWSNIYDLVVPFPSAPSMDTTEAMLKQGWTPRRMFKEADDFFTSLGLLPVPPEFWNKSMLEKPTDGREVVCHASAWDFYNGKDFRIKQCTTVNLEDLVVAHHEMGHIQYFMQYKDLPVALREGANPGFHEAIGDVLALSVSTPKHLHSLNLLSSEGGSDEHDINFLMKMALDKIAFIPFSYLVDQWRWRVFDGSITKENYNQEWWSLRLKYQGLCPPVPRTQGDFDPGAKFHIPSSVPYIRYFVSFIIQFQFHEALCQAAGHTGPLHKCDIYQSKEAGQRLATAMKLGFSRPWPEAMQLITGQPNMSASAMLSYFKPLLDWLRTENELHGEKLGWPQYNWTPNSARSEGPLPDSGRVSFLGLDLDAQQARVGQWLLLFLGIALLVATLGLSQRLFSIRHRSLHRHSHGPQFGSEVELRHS
Experimental: (§3) In order to determine the KD values of the DX600-based radiopeptides and [^67Ga]Ga-DOTA-BPP9a, HEK-ACE2 and HEK-ACE cells were seeded in 48-well-plates allowing adhesion and growth overnight. The cell samples were incubated with increasing concentrations (1‒2000 nM) of the radiopeptides (5 MBq/nmol) on ice. Some of the cell samples were co-incubated with an excess of cyclo-DX600 or lisinopril (20 µM, 10 nmol) to block ACE2 or ACE, respectively, enabling the determination of non-specific binding (Additional file 1). After 1 h incubation, the cells were rinsed with PBS and lysed with NaOH (1 M, 600 µL) to count the activity in a γ-counter. The KD values were determined by plotting specific binding (total binding minus unspecific binding) against the molar concentration of the added radiopeptide. A nonlinear regression analysis was performed using GraphPad Prism software (version 8.3.1).

[4] = Blood plasma protein binding, mouse plasma (ultrafiltration); format: in vitro ADME; settings: mouse, plasma, 30 min, 37 °C, read-out: Fraction bound to blood plasma proteins (converted)
Experimental: as §1, §2

[5] = test system: mouse blood plasma proteins; test: as above; format: in vitro ADME; settings: 30 min, 37 °C
Experimental: as §1, §2

[6] = In vitro stability in human blood plasma (TLC); format: in vitro ADME; settings: 37 °C
Experimental: (§4) The ^67Ga-labeled DX600-radiopeptides (20 MBq/nmol) were incubated in human and mouse plasma (10 MBq/200 µL), respectively, at 37 °C. Aliquots were taken at variable time points up to 24 h for analysis using reversed phase thin layer chromatography (TLC) with citrate buffer (0.1 M, pH 5.5) as a mobile phase. Images of the TLC plates were obtained using a storage phosphor system (Cyclone Plus, PerkinElmer) and quantified using the OptiQuant software (version 5.0, Bright Instrument Co Ltd., PerkinElmer™) (Supplementary Information).
(§5) The radiopeptides were prepared and TLC experiments were performed immediately after radiolabeling by applying the diluted radiopeptides in saline (1 µL; ~0.05 MBq) and [^67Ga]GaCl3 solution (1 µL; ~0.05 MBq) on the TLC plates. The radiopeptides were incubated in mouse or human plasma (10 MBq/200 µL) at 37° C. TLC was performed with an aliquot of the plasma samples at the given timepoints (30 min, 1 h, 3 h and 24 h). The TLC plates were exposed to a phosphor screen followed by development using a storage phosphor system (Cyclone Plus, PerkinElmer). The quantification of the signals was carried out using the OptiQuant software (version 5.0, Bright Instrument Co Ltd., PerkinElmer^TM). The obtained chromatograms were analyzed by determination of the peak area of the radiolabeled peptide, the released gallium-67 as well as degradation products of unknown structure. The quantity of the intact product was expressed as percentage of the sum of integrated peak areas of the entire chromatogram.

[7] = In vitro stability in mouse blood plasma (TLC); format: in vitro ADME; settings: 37 °C
Experimental: as §4, §5

[8] = biological target: T2, ACE2 (Homo sapiens, UniProt Q9BYF1); test: ACE2-binding affinity (saturation binding on HEK-ACE2 cells); settings: on ice, 1 h
T2 construct: host or cells: HEK-293
T2 sequence (Q9BYF1 18-805): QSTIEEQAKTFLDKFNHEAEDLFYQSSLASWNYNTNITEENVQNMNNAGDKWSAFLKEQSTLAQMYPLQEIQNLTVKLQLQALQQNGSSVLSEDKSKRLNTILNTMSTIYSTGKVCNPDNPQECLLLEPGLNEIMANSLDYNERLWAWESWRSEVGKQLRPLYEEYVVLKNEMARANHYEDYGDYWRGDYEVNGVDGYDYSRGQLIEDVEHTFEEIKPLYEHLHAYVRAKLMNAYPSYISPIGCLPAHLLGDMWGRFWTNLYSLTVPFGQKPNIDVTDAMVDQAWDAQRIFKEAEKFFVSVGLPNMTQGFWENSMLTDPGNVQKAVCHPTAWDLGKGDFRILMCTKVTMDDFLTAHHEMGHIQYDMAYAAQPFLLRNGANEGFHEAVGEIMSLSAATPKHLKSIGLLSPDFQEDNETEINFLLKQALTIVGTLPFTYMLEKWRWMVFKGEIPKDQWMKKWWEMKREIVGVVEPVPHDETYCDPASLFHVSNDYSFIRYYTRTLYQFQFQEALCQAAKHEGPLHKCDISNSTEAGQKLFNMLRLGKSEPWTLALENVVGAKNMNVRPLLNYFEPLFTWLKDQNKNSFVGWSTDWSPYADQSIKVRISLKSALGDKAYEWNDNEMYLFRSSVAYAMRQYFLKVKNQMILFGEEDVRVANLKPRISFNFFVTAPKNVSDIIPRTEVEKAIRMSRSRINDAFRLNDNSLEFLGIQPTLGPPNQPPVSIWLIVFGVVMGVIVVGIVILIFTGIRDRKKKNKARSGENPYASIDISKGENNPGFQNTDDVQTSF
Experimental: as §3

[9] = test system: FVB mice; test: In vivo stability in immunocompetent FVB mice (TLC of blood plasma, urine, kidneys); set-up: species or system mouse; settings: 1 h p.i.; for Radiometabolites in kidney homogenates: fraction of accumulated activity
Experimental: In order to investigate the stability of the radiopeptides, the ^67Ga-labeled DX600 peptides (20 MBq/nmol) were tested in immunocompetent FVB mice (10 MBq in 100 μL per mouse). Before sacrificing, blood was collected from each mouse 1 h after injection of the radiopeptides. After centrifugation, the blood plasma was analyzed using reversed phase TLC with citrate buffer (0.1 M, pH 5.5) as a mobile phase. The kidneys were collected and processed to investigate the presence of intact radiopeptides and potential metabolites using the same TLC system. The analysis of the chromatograms was performed as described for the in vitro plasma stability (Additional file 1).
Methods: Immunocompetent FVB mice were injected with the DX600-based radiopeptides (n=2). One hour later, urine was collected and blood was sampled from the retrobulbar vein followed by centrifugation (10 min, 200 rcf). A drop of urine and blood plasma was analyzed using the TLC method described for in vitro stability experiments above (reversed phase as stationary phase and citrate buffer pH 5.5 as mobile phase). The data were also confirmed using normal phase TLC. Kidneys of mice were collected, cut into small pieces, homogenized in 200 μL buffer solution (ice-cold methanol containing 0.025% NH4OH) and centrifuged (5 min, 2300 rcf, 4° C) as described by Boss et al.. An aliquot of the supernatant of each sample was developed using the same TLC method as for urine and blood plasma samples. The TLC plates were exposed to a phosphor screen which was afterwards read using a storage phosphor system (Cyclone Plus, PerkinElmer). The quantification of the signals was carried out using the OptiQuant software (version 5.0, Bright Instrument Co Ltd., PerkinElmer^TM). The obtained chromatograms were analyzed by determination of the peak area of the radiolabeled peptide, the released gallium-67 as well as degradation products of unknown structure. The quantity of the intact product was expressed as percentage of the sum of integrated peak areas of the entire chromatogram.

Row | SMILES | Fraction bound to blood plasma proteins [1] | fraction unbound [2] | Kd [3] [nM] | fraction unbound [4] | Fraction bound to blood plasma proteins [5] | Released gallium-67 in human blood plasma ([6]; 24 h) [%] | Intact radiopeptide in mouse blood plasma ([7]; 3 h) [%] | Release of gallium-67 in mouse blood plasma ([7]; 3 h) | Intact radiopeptide in mouse blood plasma ([7]; 24 h) [%] | Release of gallium-67 in mouse blood plasma ([7]; 24 h) [%] | Intact radiopeptide in mouse blood plasma ([7]; first hour) | Kd [8] [nM] | Release of gallium-67 from the chelator in blood plasma [9] | Radiometabolites in kidney homogenates [9] | Intact radiopeptide in human blood plasma ([6]; whole incubation period of 24 h) [%]
1 | CC[C@H](C)[C@H](NC(=O)[C@H](CCC(N)=O)NC(=O)[C@@H]1CCCN1C(=O)[C@H](CCCNC(=N)N)NC(=O)[C@@H]1CCCN1C(=O)[C@H](Cc1c[nH]c2ccccc12)NC(=O)[C@H](CCC(=O)O)NC(=O)CCCCCNC(=O)CCCCCNC(=O)CN1CCN(CC(=O)O)CCN(CC(=O)O)CCN(CC(=O)O)CC1)C(=O)N1CCC[C@H]1C(=O)N1CCC[C@H]1C(=O)O [[^67Ga]Ga-DOTA-BPP9a, metal not drawn] ({DOTA-Ahx-Ahx}-EWPRPQIPP-OH) | ~ 49% | 0.5 | 693 ± 354 | 0.47 | ~ 53% |  |  |  |  |  |  |  |  |  | 
2 | CC(=O)N[C@@H](CCCCNC(=O)CN1CCN(CC(=O)O)CCN(CC(=O)O)CCN(CC(=O)O)CC1)C(=O)NCC(=O)N[C@@H](CC(=O)O)C(=O)N[C@@H](Cc1ccc(O)cc1)C(=O)N[C@@H](CO)C(=O)N[C@@H](Cc1c[nH]cn1)C(=O)N[C@H]1CSSC[C@@H](C(=O)N[C@H](C(=O)N[C@@H](Cc2ccc(O)cc2)C(=O)N2CCC[C@H]2C(=O)N[C@@H](CC(=O)O)C(=O)N2CCC[C@H]2C(=O)N[C@@H](CCC(=O)O)C(=O)NCC(=O)NCC(=O)NCC(N)=O)[C@@H](C)O)NC(=O)[C@H](CCCCN)NC(=O)[C@H](Cc2c[nH]c3ccccc23)NC(=O)[C@H](Cc2c[nH]c3ccccc23)NC(=O)[C@@H]2CCCN2C(=O)[C@H](Cc2ccc(O)cc2)NC(=O)[C@H](Cc2ccc(O)cc2)NC(=O)[C@H](CCCNC(=N)N)NC(=O)[C@H](CC(C)C)NC(=O)[C@@H]2CCCN2C(=O)[C@H](CO)NC1=O [[^67Ga]Ga-DOTA-DX600, metal not drawn] (Ac-K(DOTA)GDYSHCSPLRYYPWWKCTYPDPEGGG-NH2; disulfide 7-18) |  |  |  |  |  | > 30 | 95 ± 3 | ~ 4% | 20 ± 13 | > 50 | intact | 98 ± 10 | 3.5 % of the total activity determined in the blood | ~ 93% | 
3 | CC(=O)N[C@@H](CCCCNC(=O)CCC(C(=O)O)N1CCN(CC(=O)O)CCN(CC(=O)O)CC1)C(=O)NCC(=O)N[C@@H](CC(=O)O)C(=O)N[C@@H](Cc1ccc(O)cc1)C(=O)N[C@@H](CO)C(=O)N[C@@H](Cc1c[nH]cn1)C(=O)N[C@H]1CSSC[C@@H](C(=O)N[C@H](C(=O)N[C@@H](Cc2ccc(O)cc2)C(=O)N2CCC[C@H]2C(=O)N[C@@H](CC(=O)O)C(=O)N2CCC[C@H]2C(=O)N[C@@H](CCC(=O)O)C(=O)NCC(=O)NCC(=O)NCC(N)=O)[C@@H](C)O)NC(=O)[C@H](CCCCN)NC(=O)[C@H](Cc2c[nH]c3ccccc23)NC(=O)[C@H](Cc2c[nH]c3ccccc23)NC(=O)[C@@H]2CCCN2C(=O)[C@H](Cc2ccc(O)cc2)NC(=O)[C@H](Cc2ccc(O)cc2)NC(=O)[C@H](CCCNC(=N)N)NC(=O)[C@H](CC(C)C)NC(=O)[C@@H]2CCCN2C(=O)[C@H](CO)NC1=O (stereo partly drawn) [[^67Ga]Ga-NODAGA-DX600, metal not drawn] (Ac-K(NODAGA)GDYSHCSPLRYYPWWKCTYPDPEGGG-NH2; disulfide 7-18) |  |  |  |  |  |  | 97 ± 1 |  | 36 ± 7 |  |  |  |  | ~ 90% | > 99
